Data on twelve compounds can be found in PubChem BioAssay (NCI).

Test systems include MDA-MB-435; BT-549 breast; HS 578T breast; UO-31 renal; TK-10 renal; T-47D breast.
Common to all, as to assay: NCI anticancer screen, dose series, 48 h

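Dose response: 5 concentrations. Exposure: 48 h. Format: 96-well plates. Endpoint: linear interpolation; highest concentration if not reached. Abbreviation: GI50, concentration required for 50% inhibition of growth. TGI: concentration producing complete growth inhibition.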

`NC(N)=NC(N)=NCCCc1ccco1`: the GI50 with MDA-MB-435 is 21.5 µM; with BT-549 breast it was 39.6 µM; in the test on HS 578T breast it was 96 µM; in the test with UO-31 renal, 65.2 µM; in the test with TK-10 renal it was 22.7 µM; in the test on T-47D breast, 71.7 µM. Besides, the TGI is 82.4 µM in the test with MDA-MB-435; 152 µM in the test with BT-549 breast; 383 µM in the test on HS 578T breast; 195 µM with UO-31 renal; 119 µM in the test with TK-10 renal; 319 µM in the test with T-47D breast.
`C[C@H]1COCCN1c1cc(C2(S(=O)(=O)C3CC3)CC2)nc(-c2ccc(NC(=S)NCCO)cc2)n1`: the GI50 in the test on MDA-MB-435 is 0.0244 µM; in the test with BT-549 breast it was below 0.012 µM; in the test on HS 578T breast, 0.0109 µM; in the test on UO-31 renal, 0.0272 µM; with TK-10 renal it was 0.0148 µM; in the test on T-47D breast it was below 0.01 µM. Also, the TGI in the test with MDA-MB-435 worked out at 1.19 µM; in the test on BT-549 breast, 0.134 µM; in the test with HS 578T breast, 0.0643 µM; with UO-31 renal, 0.524 µM; with TK-10 renal, 0.274 µM; with T-47D breast it was 0.0224 µM.
As to `C=C1C(=O)O[C@H]2[C@H]1CC/C(COC(=O)CCCc1c[nH]c3ccccc13)=C\CC[C@@]1(C)O[C@@H]21`, the GI50 with MDA-MB-435 was 1.74 µM; in the test on BT-549 breast, 1.37 µM; in the test with HS 578T breast, 3.19 µM; with UO-31 renal, 1.41 µM; with TK-10 renal, 1.64 µM; in the test with T-47D breast it was 2.17 µM. The TGI in the test with MDA-MB-435 was determined as 3.55 µM; in the test with BT-549 breast it was 3.06 µM; with HS 578T breast it was 20.9 µM; in the test with UO-31 renal, 2.73 µM; with TK-10 renal, 3.07 µM; with T-47D breast it was 4.81 µM.
As for `O=C(c1ccccc1)c1c(C(F)(F)F)n([O-])c2cc(C(F)(F)F)ccc2[n+]1=O`, the GI50 in the test on MDA-MB-435 is 1.6 µM; in the test with BT-549 breast, 0.91 µM; in the test with HS 578T breast, 1.8 µM; with UO-31 renal it was 1.32 µM; in the test with TK-10 renal it was 1.75 µM; in the test on T-47D breast it was 1.46 µM. In addition, the TGI in the test on MDA-MB-435 amounted to 3.02 µM; in the test with BT-549 breast, 2.27 µM; in the test with HS 578T breast it was 4.29 µM; with UO-31 renal, 2.67 µM; with TK-10 renal, 3.18 µM; with T-47D breast it was 3.38 µM.
Turning to `O=C(/C=C1\C(=O)N(Cc2ccccc2)c2ccccc21)c1ccc(OCCN2CCCCC2)cc1`, the GI50 with MDA-MB-435 is 2.49 µM; with BT-549 breast it was 2.07 µM; in the test with HS 578T breast, 3 µM; in the test with UO-31 renal it was 1.54 µM; in the test on TK-10 renal, 1.58 µM; in the test on T-47D breast it was 1.6 µM. Further, the TGI with MDA-MB-435 came to 9.33 µM; in the test on BT-549 breast it was 4.05 µM; with HS 578T breast, 9.91 µM; in the test on UO-31 renal, 2.87 µM; in the test with TK-10 renal, 2.97 µM; in the test on T-47D breast, 3.4 µM.
For the compound `O=C(c1ccco1)c1c(C(F)(F)F)n([O-])c2cc(C(F)(F)F)ccc2[n+]1=O`, the GI50 in the test with MDA-MB-435 was 1.47 µM; in the test on BT-549 breast, 0.486 µM; in the test on HS 578T breast, 1.36 µM; in the test on UO-31 renal, 0.517 µM; in the test with TK-10 renal, 1.57 µM; in the test on T-47D breast it was 0.355 µM. The TGI in the test with MDA-MB-435 worked out at 3.1 µM; in the test on BT-549 breast, 1.09 µM; in the test on UO-31 renal it was 1.02 µM; in the test on TK-10 renal, 3.1 µM; in the test on T-47D breast it was 1.47 µM.
As for `CC(=O)O[C@H]1C(=O)[C@@]2(C)[C@H]([C@H](OC(=O)c3ccccc3)[C@]3(O)C[C@H](OC(=O)[C@H](OC(=O)OC[C@H]4COC(C)(C)O4)[C@@H](NC(=O)c4ccccc4)c4ccccc4)C(C)=C1C3(C)C)[C@]1(OC(C)=O)CO[C@@H]1C[C@@H]2O`, the GI50 with MDA-MB-435 is 0.00333 µM; in the test on BT-549 breast, 0.0576 µM; in the test on HS 578T breast it was 0.0166 µM; with UO-31 renal, 0.738 µM; in the test with TK-10 renal, 0.492 µM; in the test on T-47D breast it was 0.0437 µM. The TGI with MDA-MB-435 was 0.00852 µM; in the test with BT-549 breast, above 33.3 µM; in the test on HS 578T breast it was 0.39 µM; in the test with UO-31 renal, above 33.3 µM; with TK-10 renal, above 33.3 µM; with T-47D breast, above 33.3 µM.
As to `Cn1c(-c2ccccc2)c(/C=C/C2=[N+](C)c3ccccc3C2(C)C)c2ccccc21`, the GI50 in the test on MDA-MB-435 is 0.486 µM; with BT-549 breast, 0.476 µM; in the test on HS 578T breast, 1.08 µM; in the test on UO-31 renal it was 2.23 µM; with TK-10 renal, 1.35 µM; in the test on T-47D breast, 0.34 µM. The TGI in the test with MDA-MB-435 was 4.02 µM; in the test on BT-549 breast, 3.71 µM; with HS 578T breast, 16.6 µM; in the test on UO-31 renal it was 7.3 µM; in the test with TK-10 renal, 11.5 µM; in the test with T-47D breast, 9.07 µM.
As to `CCCCCCCC(=O)SCC/C=C/[C@@H]1CC(=O)NCc2nc(cs2)C2=N[C@@](C)(CS2)C(=O)N[C@@H](C(C)C)C(=O)N1`, the GI50 in the test on MDA-MB-435 is below 0.01 µM; in the test on BT-549 breast it was 0.0604 µM; in the test on HS 578T breast, 0.0183 µM; in the test with UO-31 renal, 0.741 µM; in the test with TK-10 renal, 0.0175 µM; with T-47D breast it was below 0.0124 µM. For the same compound, the TGI was 1.9 µM with MDA-MB-435; above 66.8 µM in the test with BT-549 breast; 38 µM in the test on HS 578T breast; 21.2 µM in the test with UO-31 renal; 0.316 µM in the test with TK-10 renal; 0.0677 µM with T-47D breast.
Consider `CC(=O)OC12c3ccccc3-c3ccccc3C1C(C(=O)O)C2C(=O)O` (stereo unspecified), for which the TGI with MDA-MB-435, in the test with HS 578T breast, in the test with UO-31 renal, in the test on TK-10 renal and with T-47D breast was above 10 µM in each case.
`C=C1C(=O)O[C@H]2[C@H]1CC/C(COC(=O)OC/C1=C/CC[C@@]3(C)O[C@H]3[C@H]3OC(=O)[C@@H](CN(C)C)[C@@H]3CC1)=C\CC[C@@]1(C)O[C@@H]21`: the GI50 with MDA-MB-435 is 1.81 µM; in the test with BT-549 breast, 1.41 µM; in the test with HS 578T breast it was 4.39 µM; with UO-31 renal, 1.04 µM; with TK-10 renal, 1.18 µM; in the test on T-47D breast it was 0.714 µM. Further, the TGI in the test on MDA-MB-435 came out at 4.31 µM; in the test with BT-549 breast it was 2.8 µM; in the test with HS 578T breast it was 26.9 µM; in the test on UO-31 renal it was 2.25 µM; in the test with TK-10 renal, 2.57 µM; in the test on T-47D breast, 3.08 µM.
With `COc1ccc(NC(=O)c2sc3nc(C)c(C(=O)/C=C/c4cccc(OC)c4)cc3c2N)cc1`, the GI50 is 1.35 µM in the test on MDA-MB-435; 1.02 µM with BT-549 breast; 4.5 µM in the test with HS 578T breast; 0.842 µM in the test on UO-31 renal; 1.91 µM in the test on TK-10 renal; 1.46 µM with T-47D breast. Further, the TGI is 6.78 µM in the test with MDA-MB-435; 2.67 µM in the test on BT-549 breast; above 50 µM in the test with HS 578T breast; 1.76 µM with UO-31 renal; 15.3 µM with TK-10 renal; above 50 µM in the test with T-47D breast.
